This note sets out measurements from patent US5840684A, “Glycopeptide antibiotic derivatives” (Eli Lilly and Company, priority 1995, dated 1998).

The subject of assay [1] is Staphylococcus aureus S13E. The format is cell-based. The method, then:
(§1) The MIC's were determined using a standard broth micro-dilution assay.

For assay [2], the system named is Staphylococcus aureus 491. Description: broth micro-dilution MIC. The assay is classed as cell-based. The protocol: as §1
The next assay concerns Entercoccus faecium 276. Description: broth micro-dilution MIC. The format is cell-based. The method, then: as §1
Assay [3] concerns Staphylococcus aureus 447. Description: broth micro-dilution MIC. The assay is classed as cell-based. The protocol:
as §1

The subject of assay [4] is Staphylococcus aureus 446. Kind of assay: broth micro-dilution MIC. The assay is classed as cell-based. The method, then: as §1
Assay [5] deals with Staphylococcus aureus X778. Description: broth micro-dilution MIC. The assay is classed as cell-based. The method, then:
as §1

Assay [6] concerns Entercoccus faecium 180-1. Description: broth micro-dilution MIC. The assay is classed as cell-based. The method, then: as §1
For assay [7], the system named is Staphylococcus aureus SA1199A. Description: broth micro-dilution MIC. The assay is classed as cell-based. The protocol:
as §1

Assay [8] concerns Staphylococcus aureus X400. Description: broth micro-dilution MIC. The assay is classed as cell-based. The protocol: as §1
In assay [9] the test system is Staphylococcus aureus SA1199. Description: broth micro-dilution MIC. The format is cell-based. The method, then:
as §1

The subject of assay [10] is Streptococcus pyogenes C203. Kind of assay: broth micro-dilution MIC. The format is cell-based. The method, then: as §1
The subject of assay [11] is Enterococcus gallinarum 245. Kind of assay: broth micro-dilution MIC. The format is cell-based. The note with it: Enterococcus gallinarum 245. The protocol:
(§2) The formula I compounds have in vitro and in vivo activity against Gram-positive pathogenic bacteria. The MIC's were determined using a standard broth micro-dilution assay.

For another assay, the system named is Entercoccus faecium 180. Kind of assay: broth micro-dilution MIC. The assay is classed as cell-based. The note with it: Entercoccus faecium 180. The protocol: as §2
The test system of assay [12] is Streptococcus pneumoniae P1. Description: broth micro-dilution MIC. The assay is classed as cell-based. The method, then: as §2
Assay [13] concerns Staphylococcus haemolyticus 415. Description: broth micro-dilution MIC. The format is cell-based. The protocol:
as §2

Assay [14] deals with Staphylococcus epidermidis 270. Kind of assay: broth micro-dilution MIC. The format is cell-based. The protocol:
as §2

A further assay has as its system Entercoccus faecium 2041. Description: broth micro-dilution MIC. The assay is classed as cell-based. The note with it: Entercoccus faecium 2041. The protocol: as §2
The test system of assay [15] is Staphylococcus haemolyticus 105. Kind of assay: broth micro-dilution MIC. The assay is classed as cell-based. The method, then:
as §2

Assay [16] concerns vancomycin-resistant enterococci. Description: broth micro-dilution, mean geometric MIC. The note with it: enterococci, 24-hour incubation. The format is cell-based, Enterococcus faecium and Enterococcus faecalis.
Another assay concerns Streptococcus pneumoniae. Description: mouse protection, experimentally-induced infection. The assay is classed as in vivo. The note with it: mice infected with Streptococcus pneumoniae, two doses.
The test system of another assay is Streptococcus pyogenes. Description: mouse protection, experimentally-induced infection. The note with it: mice infected with Streptococcus pyogenes, two doses. The format is in vivo.
Assay [17] concerns Staphylococcus aureus SA1199B. The assay is classed as cell-based. The method, then:
as §1

Assay [18] has as its system Staphylococcus aureus 489. Description: broth micro-dilution MIC. The format is cell-based. The method, then: as §1
In assay [19] the test system is vancomycin-susceptible enterococci. Kind of assay: broth micro-dilution, mean geometric MIC. The assay is classed as cell-based, Enterococcus faecium and Enterococcus faecalis. The note with it: enterococci, 24-hour incubation.

Values after ≈ are worked out from the molar mass of the structure shown.

On to `CCCCCCCCCOc1ccc(CNC2(C)CC(OC3C(Oc4c5cc6cc4Oc4ccc(cc4Cl)C(OC4CC(C)(N)C(O)C(C)O4)C4NC(=O)C(NC(=O)C6NC(=O)C(CC(N)=O)NC(=O)C(NC(=O)C(CC(C)C)NC)C(O)c6ccc(c(Cl)c6)O5)c5ccc(O)c(c5)-c5c(O)cc(O)cc5C(C(=O)O)NC4=O)OC(CO)C(O)C3O)OC(C)C2O)cc1` (centres unmarked) [Compound 8], for which the minimal inhibitory concentration (MIC) worked out at 8 mg/L (≈ 4.38 µM) in assay [1]; 4 mg/L (≈ 2.19 µM) in assay [2]; 4 mg/L (≈ 2.19 µM) in the assay on Entercoccus faecium 276; 8 mg/L (≈ 4.38 µM) in [3]; 2 mg/L (≈ 1.1 µM) in assay [4]; 8 mg/L (≈ 4.38 µM) in [5]. Moreover, the MIC is 0.5 mg/L (≈ 0.274 µM) in [6]; 2 mg/L (≈ 1.1 µM) in assay [7]; 8 mg/L (≈ 4.38 µM) in [8]; 2 mg/L (≈ 1.1 µM) in [9]; at most 0.06 mg/L in assay [10]; 8 mg/L (≈ 4.38 µM) in assay [11]. The MIC against Entercoccus faecium 180 is 1 mg/L (≈ 0.548 µM); in assay [12], at most 0.06 mg/L; in assay [13] it was 8 mg/L (≈ 4.38 µM); in [14], 4 mg/L (≈ 2.19 µM); in the assay with Entercoccus faecium 2041, 4 mg/L (≈ 2.19 µM); in assay [15], 8 mg/L (≈ 4.38 µM). For the same molecule, in assay [16], the “mean geometric MIC, Vancomycin Resistant Strains” value is 1.0 mg/L. Further, the ED50 in the assay with Streptococcus pneumoniae is 0.273 mg/kg/2; with Streptococcus pyogenes, above 0.5 mg/kg/2.

As for `CNC(CC(C)C)C(=O)NC1C(=O)NC(CC(N)=O)C(=O)NC2C(=O)NC3C(=O)NC(C(=O)NC(C(=O)O)c4cc(O)cc(O)c4-c4cc3ccc4O)C(OC3CC(C)(N)C(O)C(C)O3)c3ccc(c(Cl)c3)Oc3cc2cc(c3OC2OC(CO)C(O)C(O)C2OC2CC(C)(NCc3ccc(Oc4cccc(Cl)c4)c([N+](=O)[O-])c3)C(O)C(C)O2)Oc2ccc(cc2Cl)C1O` (centres unmarked) [Compound 87], the MIC in assay [17] is 0.5 mg/L (≈ 0.27 µM); in assay [1] it was 0.5 mg/L (≈ 0.27 µM); in assay [2], 2 mg/L (≈ 1.08 µM); in the assay on Entercoccus faecium 276, at most 0.06 mg/L; in assay [3], 0.5 mg/L (≈ 0.27 µM); in [4] it was 1 mg/L (≈ 0.539 µM). The minimum inhibitory concentration (MIC) in [5] was 2 mg/L (≈ 1.08 µM); in [6] it was at most 0.06 mg/L; in assay [18], 0.5 mg/L (≈ 0.27 µM); in [7], at most 0.06 mg/L; in assay [8] it was 1 mg/L (≈ 0.539 µM); in assay [9] it was 2 mg/L (≈ 1.08 µM). Also, the MIC is at most 0.06 mg/L in [10]; 2 mg/L (≈ 1.08 µM) in assay [11]; at most 0.06 mg/L against Entercoccus faecium 180; at most 0.06 mg/L in assay [12]; 2 mg/L (≈ 1.08 µM) in [13]; 1 mg/L (≈ 0.539 µM) in assay [14]. In addition, the MIC in the assay on Entercoccus faecium 2041 is at most 0.06 mg/L; in assay [15], 1 mg/L (≈ 0.539 µM). For the same molecule, the “mean geometric MIC, Vancomycin Resistant Strains” value in [16] was determined as 0.71 mg/L. Moreover, the ED50 with Streptococcus pneumoniae turned out to be 0.027 mg/kg/2; with Streptococcus pyogenes, 0.054 mg/kg/2. Also, in [19], the “mean geometric MIC, Vancomycin Sensitive Strains” value came out at 0.047 mg/L.

As for `CCc1ccc(-c2ccc(CNC3(C)CC(OC4C(Oc5c6cc7cc5Oc5ccc(cc5Cl)C(OC5CC(C)(N)C(O)C(C)O5)C5NC(=O)C(NC(=O)C7NC(=O)C(CC(N)=O)NC(=O)C(NC(=O)C(CC(C)C)NC)C(O)c7ccc(c(Cl)c7)O6)c6ccc(O)c(c6)-c6c(O)cc(O)cc6C(C(=O)O)NC5=O)OC(CO)C(O)C4O)OC(C)C3O)cc2)cc1` (centres unmarked) [Compound 90], the MIC in [17] was 1 mg/L (≈ 0.56 µM); in assay [1], 1 mg/L (≈ 0.56 µM); in [2], 2 mg/L (≈ 1.12 µM); in the assay with Entercoccus faecium 276, 2 mg/L (≈ 1.12 µM); in assay [3], 1 mg/L (≈ 0.56 µM); in assay [4], 2 mg/L (≈ 1.12 µM). In addition, the MIC in assay [5] was 1 mg/L (≈ 0.56 µM); in [6], at most 0.06 mg/L; in assay [18], 2 mg/L (≈ 1.12 µM); in [7], 0.5 mg/L (≈ 0.28 µM); in assay [8], 1 mg/L (≈ 0.56 µM); in assay [9], 2 mg/L (≈ 1.12 µM). Further, the MIC was at most 0.06 mg/L in [10]; 2 mg/L (≈ 1.12 µM) in assay [11]; 0.25 mg/L (≈ 0.14 µM) against Entercoccus faecium 180; at most 0.06 mg/L in assay [12]; 2 mg/L (≈ 1.12 µM) in assay [13]; 1 mg/L (≈ 0.56 µM) in assay [14]. Besides, the MIC worked out at 0.125 mg/L (≈ 0.07 µM) against Entercoccus faecium 2041 and 2 mg/L (≈ 1.12 µM) in assay [15]. Further, the “mean geometric MIC, Vancomycin Resistant Strains” value in [16] is 0.71 mg/L. Further, the ED50 in the assay on Streptococcus pneumoniae turned out to be 0.049 mg/kg/2; in the assay on Streptococcus pyogenes, 0.058 mg/kg/2. For the same molecule, the “mean geometric MIC, Vancomycin Sensitive Strains” value in [19] came out at 0.041 mg/L.

`CN[C@H](CC(C)C)C(=O)N[C@H]1C(=O)N[C@@H](CC(N)=O)C(=O)N[C@H]2C(=O)N[C@H]3C(=O)N[C@H](C(=O)N[C@H](C(=O)O)c4cc(O)cc(O)c4-c4cc3ccc4O)[C@H](O[C@H]3C[C@](C)(N)[C@@H](O)[C@H](C)O3)c3ccc(c(Cl)c3)Oc3cc2cc(c3O[C@@H]2O[C@H](CO)[C@@H](O)[C@H](O)[C@H]2O[C@H]2C[C@](C)(NCc3ccc(Oc4ccc(Cl)cc4)c([N+](=O)[O-])c3)[C@@H](O)[C@H](C)O2)Oc2ccc(cc2Cl)[C@H]1O` [Compound 94]: the MIC stood at 2 mg/L (≈ 1.08 µM) in assay [17]; 2 mg/L (≈ 1.08 µM) in assay [1]; 0.5 mg/L (≈ 0.27 µM) in assay [2]; 0.125 mg/L (≈ 0.0674 µM) in the assay on Entercoccus faecium 276; 0.5 mg/L (≈ 0.27 µM) in [3]; 1 mg/L (≈ 0.539 µM) in assay [4]. Also, the MIC in [5] is 0.5 mg/L (≈ 0.27 µM); in [6] it was at most 0.06 mg/L; in assay [18], 2 mg/L (≈ 1.08 µM); in assay [7], at most 0.06 mg/L; in [8], 1 mg/L (≈ 0.539 µM); in assay [9], 0.5 mg/L (≈ 0.27 µM). For the same molecule, the MIC in assay [10] is at most 0.06 mg/L; in [11], 2 mg/L (≈ 1.08 µM); in assay [12], at most 0.06 mg/L; in [13] it was 2 mg/L (≈ 1.08 µM); in [14], 1 mg/L (≈ 0.539 µM); against Entercoccus faecium 2041, at most 0.06 mg/L. This molecule had an MIC in assay [15] of 2 mg/L (≈ 1.08 µM). The “mean geometric MIC, Vancomycin Resistant Strains” value in assay [16] is 0.50 mg/L. Besides, the ED50 in the assay with Streptococcus pneumoniae is listed as 0.049 mg/kg/2; in the assay on Streptococcus pyogenes, 0.16 mg/kg/2. Besides, the “mean geometric MIC, Vancomycin Sensitive Strains” value in [19] turned out to be 0.041 mg/L.

Regarding `CCCc1ccc(-c2ccc(CNC3(C)CC(OC4C(Oc5c6cc7cc5Oc5ccc(cc5Cl)C(OC5CC(C)(N)C(O)C(C)O5)C5NC(=O)C(NC(=O)C7NC(=O)C(CC(N)=O)NC(=O)C(NC(=O)C(CC(C)C)NC)C(O)c7ccc(c(Cl)c7)O6)c6ccc(O)c(c6)-c6c(O)cc(O)cc6C(C(=O)O)NC5=O)OC(CO)C(O)C4O)OC(C)C3O)cc2)cc1` (centres unmarked) [Compound 107], the MIC in [17] came out at 2 mg/L (≈ 1.11 µM); in assay [1], 2 mg/L (≈ 1.11 µM); in assay [2] it was 1 mg/L (≈ 0.555 µM); against Entercoccus faecium 276, 1 mg/L (≈ 0.555 µM); in assay [3] it was 1 mg/L (≈ 0.555 µM); in assay [4], 2 mg/L (≈ 1.11 µM). The MIC in assay [5] is 0.5 mg/L (≈ 0.278 µM); in assay [6], at most 0.06 mg/L; in [18], 1 mg/L (≈ 0.555 µM); in assay [7] it was at most 0.06 mg/L; in [8], 1 mg/L (≈ 0.555 µM); in [9], 1 mg/L (≈ 0.555 µM). Also, the MIC in assay [10] was at most 0.06 mg/L; in assay [11] it was 2 mg/L (≈ 1.11 µM); in the assay with Entercoccus faecium 180 it was 0.125 mg/L (≈ 0.0694 µM); in assay [12] it was at most 0.06 mg/L; in assay [13], 2 mg/L (≈ 1.11 µM); in assay [14], 0.5 mg/L (≈ 0.278 µM). Moreover, the minimum inhibitory concentration (MIC) in the assay with Entercoccus faecium 2041 is 0.5 mg/L (≈ 0.278 µM); in assay [15] it was 2 mg/L (≈ 1.11 µM). Further, in [16], the “mean geometric MIC, Vancomycin Resistant Strains” value worked out at 0.59 mg/L. Moreover, the ED50 is 0.092 mg/kg/2 with Streptococcus pneumoniae and 0.27 mg/kg/2 with Streptococcus pyogenes. The “mean geometric MIC, Vancomycin Sensitive Strains” value in [19] amounted to 0.082 mg/L.
